Data set [1] has as its system Plasmodium falciparum. The experiment in a line: NOVARTIS: Inhibition of Plasmodium falciparum 3D7 (drug-susceptible) proliferation in erythrocyte-based infection assay. Type of data set: functional, organism-based.
Data set [2] relates to Plasmodium falciparum. The experiment in a line: NOVARTIS: Inhibition of Plasmodium falciparum W2 (drug-resistant) proliferation in erythrocyte-based infection assay. It counts as functional, organism-based. As to conditions: read-out: EC50.
The nature of data set [3]: NOVARTIS: Cytotoxicity against human hepatocellular carcinoma cell line (Huh7). It counts as toxicity, cell-based, Huh-7. The conditions noted are these: Huh7 cells (hepatocellular carcinoma cell line).

From ChEMBL document CHEMBL1156829 (Proc Natl Acad Sci U S A, 2008) come the findings set out here.

Values joined by “and” are separate entries in the source; they are usually repeats but may differ in a detail not shown here. Equal entries are not always repeated.

With `CCN1C(=Cc2sc3ccccc3[n+]2C)C=Cc2ccc(C)cc21`, the EC50 with Plasmodium falciparum [1] was 1650 nM; with Plasmodium falciparum [2], greater than 1420 nM. Besides, the CC50 in data set [3] was greater than 11800 nM.

For `CCCC[n+]1c(C=C2C=Cc3ccccc3N2CC)sc2ccccc21`, the EC50 amounted to 724 nM in the data set with Plasmodium falciparum [1] and 694 nM with Plasmodium falciparum [2]. Further, the CC50 in data set [3] is greater than 10000 nM.

In turn, `CCOC(=O)c1c[nH]c2c(ccc3ccccc32)c1=O` showed a CC50 in data set [3] greater than 100000 nM.

As to `CC(C)CN1C(=O)c2ccccc2C(C(=O)Nc2cccc(Cl)c2)C1c1cccs1` (configuration not stated), the CC50 in data set [3] came out at 93600 nM.

As to `CC1=CC(=O)OC[C@]23CCC(C)=C[C@H]2O[C@@H]2C[C@@H](OC(=O)C=CC=CC(=O)OCC1)[C@@]3(C)[C@]21CO1`, the EC50 with Plasmodium falciparum [1] turned out to be 3.91 nM; with Plasmodium falciparum [2], 9.18 nM. Further, the CC50 in data set [3] is 206 nM.

Take `CCN1C(=Cc2sc3ccc(Cl)cc3[n+]2CC)C=Cc2cc(OC)ccc21`: the EC50 was determined as 473 nM in the data set on Plasmodium falciparum [1] and 602 nM with Plasmodium falciparum [2]. The same compound showed a CC50 in data set [3] greater than 10000 nM.

Turning to `CC(C)CN1C(=O)c2ccccc2C(C(=O)Nc2ccccc2F)C1c1cccs1` (configuration not stated), the CC50 in data set [3] is greater than 100000 nM.

As for `CN(/C=C/C1=[N+](C)c2ccc(Cl)cc2C1(C)C)c1ccccc1`, the concentration giving a half-maximal response (EC50) in the data set on Plasmodium falciparum [1] was 1360 nM and 455 nM; with Plasmodium falciparum [2], 900 nM and 2040 nM. The compound further showed a CC50 in data set [3] greater than 92800 nM.

`CC(C)CN1C(=O)c2ccccc2C(C(=O)Nc2cccc(C(F)(F)F)c2)C1c1cccs1` (configuration not stated) yielded a CC50 in data set [3] greater than 100000 nM.

For the compound `CC1=CC(=O)OC[C@]23C[C@H](O)C(C)=C[C@H]2O[C@@H]2C[C@@H](OC(=O)C=CC=CC(=O)OCC1)[C@@]3(C)[C@]21CO1`, the EC50 came out at 2.44 nM in the data set on Plasmodium falciparum [1] and 1.77 nM in the data set with Plasmodium falciparum [2]. This compound had a CC50 in data set [3] of 83.7 nM.

`C=CC12CCN(CC1)C(C(O)c1ccnc3ccc(OC)cc13)C2` (configuration not stated): the EC50 in the data set with Plasmodium falciparum [2] (Plasmodium falciparum, W2) was found to be 29.3 nM. In data set [3], this compound yielded a CC50 of 77700 nM.

For `C=CCN1C=CC(=Cc2sc3ccccc3[n+]2C)c2ccccc21`, the EC50 came out at 432 nM in the data set with Plasmodium falciparum [1] and 125 nM in the data set with Plasmodium falciparum [2] (Plasmodium falciparum, W2). In data set [3], this compound returned a CC50 greater than 9370 nM.

Regarding `CC[n+]1ccc(C=Cc2ccc(N(C)C)cc2)cc1`, the EC50 with Plasmodium falciparum [1] was 409 nM; in the data set with Plasmodium falciparum [2] it was greater than 4460 nM. This compound also had a CC50 in data set [3] greater than 84900 nM.

With `CCOC(=O)C1=C(C)N=c2sc(=Cc3cc(Cl)ccc3O)c(=O)n2C1c1ccc(OC)c(OC)c1` (configuration not stated), the concentration for a half-maximal effect (EC50) in the data set on Plasmodium falciparum [2] is 1440 nM and 264 nM. Moreover, the CC50 in data set [3] is greater than 100000 nM.

The compound `Cc1cc(Nc2ccc(C)c(F)c2)n2nc(C)nc2n1` showed an EC50 in the data set on Plasmodium falciparum [1] (Plasmodium falciparum, 3D7) of 1040 nM. Moreover, in data set [3], the CC50 was greater than 100000 nM.

For the compound `COC(=O)c1ccc(C2C3=C(O)CC(c4ccco4)CC3=Nc3ccccc3N2C(=O)c2ccccc2)cc1` (configuration not stated), the EC50 in the data set with Plasmodium falciparum [1] was 579 nM; with Plasmodium falciparum [1] (Plasmodium falciparum, 3D7), 387 nM. Also, the CC50 in data set [3] was greater than 100000 nM.

Turning to `CC1=C[C@H]2O[C@@H]3C[C@H]4OC(=O)C=CC=C[C@H]([C@@H](C)O)OCC[C@@H](C)[C@H](O)C(=O)OC[C@@]2(CC1)[C@]4(C)[C@@]31CO1`, the EC50 in the data set with Plasmodium falciparum [1] and in the data set with Plasmodium falciparum [2] was less than 0.572 nM in each case. In data set [3], this compound showed a CC50 of 6.04 nM.

`CC(C)CN1C(=O)c2ccccc2C(C(=O)Nc2ccccn2)C1c1cccs1` (configuration not stated) displayed a CC50 in data set [3] greater than 100000 nM.

Take `c1ccc(CSc2nnc3c(n2)[nH]c2ccccc23)cc1`: the EC50 in the data set with Plasmodium falciparum [1] is greater than 1060 nM; in the data set with Plasmodium falciparum [1] (Plasmodium falciparum, 3D7) it was 1300 nM; in the data set on Plasmodium falciparum [2] (Plasmodium falciparum, W2), 1320 nM; in the data set on Plasmodium falciparum [2] it was greater than 748 nM. Moreover, the CC50 in data set [3] was greater than 10000 nM.

In turn, `CN(C)c1ccc(C=C2SC(=Nc3ccccc3)NC2=O)cc1` came in with an EC50 in the data set on Plasmodium falciparum [1] (Plasmodium falciparum, 3D7) of 27.1 nM. In data set [3], this compound displayed a CC50 greater than 74400 nM.

Consider `CC[n+]1cc(C)ccc1C=Cc1ccc(N(C)C)cc1`, for which the EC50 was found to be 195 nM in the data set on Plasmodium falciparum [1] and 232 nM with Plasmodium falciparum [2]. For the same compound, it took 15200 nM to reach half-maximal cytotoxicity in data set [3] (CC50).

With `Cn1cc(/C=C/c2cc[n+](C)cc2)c2ccccc21`, the EC50 is 92.8 nM in the data set with Plasmodium falciparum [1] and 314 nM with Plasmodium falciparum [2] (Plasmodium falciparum, W2). In data set [3], the CC50 was greater than 8990 nM.

Consider `Cc1cc(/C=C2\SC(=Nc3ccccc3)N(C3CCCCC3)C2=O)c(C)n1-c1ccc(F)cc1`, for which the EC50 in the data set on Plasmodium falciparum [2] (Plasmodium falciparum, W2) turned out to be 383 nM; with Plasmodium falciparum [2], 680 nM. In data set [3], the CC50 was greater than 100000 nM.

As a reminder, the EC50 is the concentration giving half of the maximal effect. For orientation: CC50 means the concentration at which the toxic effect on the cells reaches its halfway point. Read a high CC50 as lower toxicity to the cells.
